The values below come from patent publication US6514989B1, “Aromatic and heteroaromatic substituted 1,2,4-triazolo pyridine derivatives” (Hoffmann-La Roche Inc., priority 2001, dated 2003).

The target of test [1] is T1, human adenosine A2a receptor (Homo sapiens, UniProt P29274).
T1 construct: expressed in transfected cells; host or cells: CHO cells, semliki forest virus expression system; membrane preparation
The experiment in a line: Human adenosine A2a receptor radioligand binding assay ([125I]-AB-MECA, CHO cell membranes). The settings on record: for Selectivity A1/A2a: ratio obtained by dividing KiHA1 by KiHA2A; for Ki: recombinant human A2a receptor expressed in CHO cells, Ki from IC50 by Cheng-Prussoff equation, read-out: hA2a Ki. Here is the method:
Human Adenosine A2a Receptor
The gene encoding human adenosine A2a receptor was recombinantly introduced and expressed in chinese hamster ovary (CHO) cells using the semliki forest virus expression system. Cells were harvested, washed twice by centrifugation, homogenized and again washed by centrifugation. The final washed membrane pellet was suspended in a Tris (50 mM) buffer containing 120 mM NaCl, 5 mM KCl, 2 mM CaCl2 and 10 mM MgCl2 (pH 7.4) (buffer A). The [^125I]-AB-MECA ([N(6)-(4-amino-3-iodobenzyl)-5′-N-methylcarbamoyl-adenosine]; 0.05 nM) binding assay was carried out in 96-well a plates in the presence of 20 μg of membrane protein and 0.1 U adenosine deaminase in a final volume of […] of buffer A. Non-specific binding was defined using xanthine amine congener (XAC; 2 μM). Compounds were tested at 10 concentrations from 10 μM-0.3 nM. All assays were conducted in duplicate and repeated at least two times. Assay plates were incubated for 1 hour at room temperature before filtration through Whatman Unifilter GF/C 96-well filter plates (preincubated with 0.3% polyethyleneimine). Filters were washed 3 times with 0.3 ml of cold (4° C.) Tris (50 mM)—NaC […]
[…] 1 (120 mM) buffer (pH 7.4). Microscint 40 scintillation fluid (50 μl) was added to each well and the wells sealed. After gentle shaking for 20 min, plates were counted on a Packard Topcount scintillation counter. IC50 values were calculated using a non-linear curve fitting program and Ki values calculated using the Cheng-Prussoff equation.
(§1) In accordance with the invention, it has been shown that compounds of formula I have a high affinity toward the A2A receptor. In Table I below specific values of prepared compounds are described, Values of KiHA2A and KiHA1 are shown in Table I for compounds of formula 1. A low Ki value is indicative of a particular compound's high affinity toward a particular receptor and conversely a higher Ki value is indicative of a lower affinity for that compound toward a particular receptor. […] Generally speaking, compounds that have a higher HA1/HA2A ratio are able to give a substantially complete blockade of the HA2A receptor without substantially affecting the A1 receptor.

Test [2] addresses T2, human adenosine A1 receptor (Homo sapiens, UniProt P30542).
T2 construct: expressed in transfected cells; host or cells: CHO cells, semliki forest virus expression system; membrane preparation
T2 sequence (P30542 1-326): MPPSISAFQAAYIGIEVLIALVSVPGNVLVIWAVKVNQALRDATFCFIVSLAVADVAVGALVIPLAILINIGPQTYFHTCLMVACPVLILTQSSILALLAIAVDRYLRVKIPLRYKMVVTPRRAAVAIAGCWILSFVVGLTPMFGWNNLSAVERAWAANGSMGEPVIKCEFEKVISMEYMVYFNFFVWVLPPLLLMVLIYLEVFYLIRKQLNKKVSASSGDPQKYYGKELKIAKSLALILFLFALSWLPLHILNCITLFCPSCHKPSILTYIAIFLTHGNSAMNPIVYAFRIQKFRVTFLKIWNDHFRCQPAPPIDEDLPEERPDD
The experiment in a line: Human adenosine A1 receptor radioligand binding assay ([3H]-DPCPX, SPA, CHO cell membranes). Conditions: recombinant human A1 receptor expressed in CHO cells; [3H]-DPCPX 0.6 nM; Ki from IC50 by Cheng-Prussoff equation; read-out: hA1 Ki. As for the experimental part: Human Adenosine A^1 Receptor
The gene encoding human adenosinie A1 receptor was recombinantly introduced and expressed in chinese hamster ovary (CHO) cells using the semliki forest virus expression system. Cells were harvested, washed twice by centrifugation, homogenized and again washed by centrifugation. The final washed membrane pellet was suspended in a Tris (50 mM) buffer containing 120 mM NaCl, 5 mM KCl, 2 mM CaCl2 and 10 mM MgCl2 (pH 7.4) (buffer A). The [^3H]-DPCPX (([propyl-3H]8-cyclopentyl-1,3-dipropyxanthine); 0.6 nM) binding assay was carried out in 96-well plates in the presence of 2.5 μg of membrane protein, 0.5 mg of Ysi-poly-1-lysine SPA beads and 0.1 U adenosine deaminase in a final volume of 200 μl of buffer A. Non-specific binding was defined using xanthine amine congener (XAC; 2 μM). Compounds were tested at 10 concentrations from 10 μM-0.3 nM. All assays were conducted in duplicate and repeated at least two times. Assay plates were incubated for 1 hour at room temperature before centrifugation and then bound ligand determined using a Packard Topcount scintillation counter. IC50 values were calculated using a non-linear curve fitting program and Ki values calculated using the Cheng-Prussoff equation.
as §1

The term Ki denotes the equilibrium dissociation constant of an inhibitor or competing ligand from its target.

T1 sequence (P29274 whole entry): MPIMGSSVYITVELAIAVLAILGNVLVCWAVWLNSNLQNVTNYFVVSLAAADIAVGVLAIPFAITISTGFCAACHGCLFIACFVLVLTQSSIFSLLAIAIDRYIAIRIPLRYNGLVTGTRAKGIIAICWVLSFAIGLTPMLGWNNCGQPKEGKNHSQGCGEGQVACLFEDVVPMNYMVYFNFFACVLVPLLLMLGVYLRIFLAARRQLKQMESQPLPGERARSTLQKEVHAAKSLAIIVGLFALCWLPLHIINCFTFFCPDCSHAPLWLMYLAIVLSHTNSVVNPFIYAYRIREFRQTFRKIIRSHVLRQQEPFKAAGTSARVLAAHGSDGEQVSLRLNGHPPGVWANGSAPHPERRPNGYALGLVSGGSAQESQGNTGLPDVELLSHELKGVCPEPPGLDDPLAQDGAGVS

`CCc1ccc(C(=O)Nc2nc3c(OC)ccc(-c4ccccc4)n3n2)cc1` [Example 10, 4-Ethyl-N-(8-methoxy-5-phenyl-[1,2,4]triazolo[1,5-a]pyridin-2-yl)-benzamide]: the “Selectivity A1/A2a” value in test [1] is on record as 11.5. For the same compound, the values for the Ki in test [1] and in test [2] were 173 nM and 2000 nM, respectively.

For the compound `COc1ccc(-c2ccccc2)n2nc(NC(=O)c3cccc(F)c3)nc12` [Example 3, 3-Fluoro-N-(8-methoxy-5-phenyl-[1,2,4]triazolo[1,5-a]pyridin-2-yl)-benzamide], the “Selectivity A1/A2a” value in test [1] was 11.6. The inhibitory constant (Ki) was found to be 176 nM in test [1] and 2030 nM in test [2].

With `COc1ccc(-c2ccc(Cl)s2)n2nc(NC(=O)c3ccc(C)s3)nc12` [Example 31, 5-Methyl-thiophene-2-carboxylic acid [5-(5-chloro-thiophen-2-yl)-8-methoxy-[1,2,4]triazolo[1,5-a]pyridin-2-yl]-amide], in test [1], the “Selectivity A1/A2a” value came to 39.6 and the Ki was 29.5 nM. The Ki in test [2] came out at 1170 nM.

In the case of `COc1ccc(-c2ccccc2)n2nc(NC(=O)c3ccc(F)cc3)nc12` [Example 4, 4-Fluoro-N-(8-methoxy-5-phenyl-[1,2,4]triazolo[1,5-a]pyridin-2-yl)-benzamide], in test [1], the “Selectivity A1/A2a” value was found to be 19.6 and the Ki came to 114 nM. The Ki in test [2] was 2240 nM.

As to `COc1cccc(-c2ccc(OC)c3nc(NC(=O)c4ccc(C)s4)nn23)c1` [Example 27, 5-Methyl-thiophene-2-carboxylic acid [8-methoxy-5-(3-methoxy-phenyl)-[1,2,4]triazolo[1,5-a]pyridin-2-yl]-amide], the “Selectivity A1/A2a” value in test [1] stood at 16.5. Also, the Ki worked out at 107 nM in test [1] and 1760 nM in test [2].

With `COc1ccc(-c2ccc(OC)c3nc(NC(=O)c4ccc(C)s4)nn23)cc1` [Example 28, 5-Methyl-thiophene-2-carboxylic acid [8-methoxy-5-(4-methoxy-phenyl) [1,2,4]triazolo[1,5-a]pyridin-2-yl]-amide], in test [1], the “Selectivity A1/A2a” value is 36.5. In addition, the Ki in test [1] is 143 nM; in test [2], 5210 nM.

In the case of `CCOc1cccc(-c2ccc(OC)c3nc(NC(=O)c4ccc(F)cc4)nn23)c1` [Example 34, N-[5-(3-Ethoxy-phenyl)-8-methoxy-[1,2,4]triazolo[1,5-a]pyridin-2-yl]-4-fluoro-benzamide], in test [1], the “Selectivity A1/A2a” value came to 11.2 and the Ki is 133 nM. Moreover, the Ki in test [2] was found to be 1490 nM.

With `COc1ccc(-c2ccccc2)n2nc(NC(=O)c3cccc(Br)c3)nc12` [Example 8, 3-Bromo-N-(8-methoxy-5-phenyl-[1,2,4]triazolo[1,5-a]pyridin-2-yl)-benzamide], in test [1], the “Selectivity A1/A2a” value turned out to be 21.1 and the Ki turned out to be 136 nM. The Ki in test [2] was determined as 2880 nM.

Take `COc1ccc(-c2cccc(Cl)c2)n2nc(NC(=O)c3ccc(C)s3)nc12` [Example 25, 5-Methyl-thiophene-2-carboxylic acid [5-(3-chloro-phenyl)-8-methoxy-[1,2,4]triazolo[1,5-a]pyridin-2-yl]-amide]: in test [1], the “Selectivity A1/A2a” value is recorded as 12.7 and the Ki was 165 nM. Further, the Ki in test [2] is 2090 nM.

For `COc1ccc(-c2cccs2)n2nc(NC(=O)c3cccc(CCl)c3)nc12` [Example 20, 3-Chloromethyl-N-(8-methoxy-5-thiophen-2-yl-[1,2,4]triazolo[1,5-a]pyridin-2-yl)-benzamide], in test [1], the “Selectivity A1/A2a” value was determined as 15.9 and the Ki came out at 208 nM. In test [2], the Ki was determined as 3300 nM.

On to `COc1ccc(-c2ccccc2F)n2nc(NC(=O)c3ccc(C)s3)nc12` [Example 24, 5-Methyl-thiophene-2-carboxylic acid [5-(2-fluoro-phenyl)-8-methoxy-[1,2,4]triazolo[1,5-a]pyridin-2-yl]-amide], for which the “Selectivity A1/A2a” value in test [1] is on record as 19.5. For the same compound, the figures for the Ki in test [1] and in test [2] were 134 nM and 2610 nM, respectively.

As to `COc1ccc(-c2ccccc2)n2nc(NC(=O)c3ccc(C)s3)nc12` [Example 23, 5-Methyl-thiophene-2-carboxylic acid(8-methoxy-5-phenyl-[1,2,4]triazolo[1,5-a]pyridin-2-yl)-amide], in test [1], the “Selectivity A1/A2a” value was 43.4 and the Ki was 65.1 nM. Besides, the Ki in test [2] was 2830 nM.

As to `COc1ccc(-c2cccs2)n2nc(NC(=O)c3ccccc3Br)nc12` [Example 17, 2-Bromo-N-(8-methoxy-5-thiophen-2-yl-[1,2,4]triazolo[1,5-a]pyridin-2-yl)-benzamide], in test [1], the “Selectivity A1/A2a” value is 12.0 and the Ki is 208 nM. In addition, in test [2], the Ki is 2490 nM.

As for `COc1ccc(C(=O)Nc2nc3c(OC)ccc(-c4ccccc4)n3n2)cc1` [Example 7, 4-Methoxy-N-(8-methoxy-5-phenyl-[1,2,4]triazolo[1,5-a]pyridin-2-yl)-benzamide], in test [1], the “Selectivity A1/A2a” value is reported as 20.8 and the Ki amounted to 227 nM. In test [2], the Ki was determined as 4710 nM.

Turning to `COc1ccc(-c2cccs2)n2nc(NC(=O)c3ccccc3Cl)nc12` [Example 13, 2-Chloro-N-(8-methoxy-5-thiophen-2-yl-[1,2,4]triazolo[1,5-a]pyridin-2-yl)-benzamide], in test [1], the “Selectivity A1/A2a” value came to 9.8 and the Ki came to 230 nM. Also, in test [2], the Ki is 2250 nM.

Turning to `COc1cccc(C(=O)Nc2nc3c(OC)ccc(-c4ccccc4)n3n2)c1` [Example 11, 3-Methoxy-N-(8-methoxy-5-phenyl-[1,2,4]triazolo[1,5-a]pyridin-2-yl)-benzamide], in test [1], the “Selectivity A1/A2a” value is on record as 23.4 and the Ki is 159 nM. The Ki in test [2] worked out at 3710 nM.

In the case of `COc1ccc(-c2ccsc2)n2nc(NC(=O)c3ccc(C)s3)nc12` [Example 29, 5-Methyl-thiophene-2-carboxylic acid (8-methoxy-5-thiophen-3-yl-[1,2,4]triazolo[1,5-a]pyridin-2-yl)-amide], in test [1], the “Selectivity A1/A2a” value worked out at 24.2 and the Ki was found to be 71.1 nM. Further, the Ki in test [2] was found to be 1720 nM.

In the case of `COc1ccc(-c2cccc(F)c2)n2nc(NC(=O)c3ccc(C)s3)nc12` [Example 35, 5-Methyl-thiophene-2-carboxylic acid [5-(3-fluoro-phenyl)-8-methoxy-[1,2,4]triazolo[1,5-a]pyridin-2-yl]-amide], in test [1], the “Selectivity A1/A2a” value stood at 10.6 and the Ki was determined as 128 nM. Also, the Ki in test [2] came out at 1360 nM.

As for `COc1ccc(-c2cccs2)n2nc(NC(=O)c3ccc(Br)cc3)nc12` [Example 2, 4-Bromo-N-(8-methoxy-5-thiophen-2-yl-[1,2,4]triazolo[1,5-a]pyridin-2-yl)-benzamide], in test [1], the “Selectivity A1/A2a” value is given as 37.6 and the Ki came out at 63.6 nM. Moreover, the Ki in test [2] stood at 2390 nM.
